Patent publication US7585460B2, “Method for inhibiting the biological acidification of water in contact with materials containing sulfur” (ENI S.p.A., priority 2003, dated 2009)

Experiments:
Assay type in all cases: cell-based, Thiobacillus
Thiobacilli [1] = test: Acidification of water on sulfur block with salt englobed in surface sulfur layer, covered with sand (Example 10); details: 3 mm sulfur layer containing sodium chloride (10%), 2 cm sand
Protocol: (§1) Two blocks of elemental sulfur with an upper surface of approximately 2500 cm^2 (8.5 Kg of sulfur) are positioned in two containers. The surface of one block is then covered with a fine layer (3 mm) of liquid sulfur containing sodium chloride (10%). The upper surface of each block of sulfur is wetted with 250 ml of a bacterial suspension of Thiobacilli containing over 10^8 bacteria per milliliter. The two blocks are subsequently covered with a 2 cm layer of sand and wetted at regular intervals of time with rainwater until the layer of sand is saturated and the rilling of excess water is produced with respect to the saturation. Rainwater is added every month in a quantity equivalent to a fall of 100 mm.
(§2) The containers are exposed to the outside environment for three months. At the end of this period, the pH of the water in contact with the sulfur in the two containers, is measured.

Thiobacilli [2] = test: Acidification of water on sulfur block treated with salt powder and covered with sand (Example 9); details: about 150 g of salt in powder form on surface, 2 cm sand
Protocol: as §1, with “containers.” for “containers. The surface of one block is then covered with a fine layer (3 mm) of liquid sulfur containing sodium chloride (10%).”, “milliliter. The surface of one block is then treated with sodium chloride by spreading about 150 g of salt in powder form uniformly distributed.” for “milliliter.”
as §2

Thiobacilli [3] = test: Acidification of rainwater in contact with solid sulfur test samples colonized by Thiobacilli (Example 5); details: 33 g/l NaCl
Protocol: The following experimental systems were prepared, using test samples of solid sulfur (discoid tables each of about 13 g). • System A: Containing 2 test samples not colonized by microbial cells, placed on the bottom of the container, completely immersed in rainwater (sterilized at a low temperature by micro-filtration); • System A1: Containing two non-colonized test samples, only dampened—by means of a sprayer—with rainwater sterilized by micro-filtration. • System B: Containing 2 colonized test samples (previously immersed in a suspension of 10^8 cells/ml of Thiobacilli and left to dry in the air), placed on the bottom of the container, entirely immersed in micro-filtered rainwater; • System B1: Containing two colonized test samples as per the previous system, only dampened with rainwater sterilized by micro-filtration; • System C: Containing 2 colonized test samples entirely immersed in micro-filtered rainwater, in which 33 g/l of Nacl are dissolved; • System C1: containing 2 colonized test samples only dampened with rainwater sterilized by micro-filtration and containing 33 g/l of NaCl.
The pH variation measurements during 48 days of experimentation are represented in Table 4.

[4] = tested on: strains of the Thiobacilli type present in a natural environment; test: Acidification of TM medium or rainwater with sulfur powder, no inoculation (Example 4)
Source text: To imitate the bacterial growth conditions in a natural environment, the same experiment as Example 1 was repeated without the inoculation of Thiobacilli.
The TM saline medium was compared with a medium consisting of rainwater sterilized at a low temperature by filtration on a membrane of cellulose nitrate (porosity 0.2 microns).
The experiment is aimed at verifying the inhibiting action of NaCl on the acidification of water rich and poor in nutrients in contact with elemental sulfur due to strains of the Thiobacilli type present in a natural environment.

## [Cl-].[Na+] [NaCl, Sodium Chloride]
Thiobacilli [1]; day 0
  pH: 6.5
Thiobacilli [1]; day 10
  pH: 6.5
Thiobacilli [1]; day 20
  pH: 6.5
Thiobacilli [1]; day 30
  pH: 6.5
Thiobacilli [1]; day 90
  pH: 6.5
Thiobacilli [2]; day 0
  pH: 6.0
Thiobacilli [2]; day 10
  pH: 5.8
Thiobacilli [2]; day 20
  pH: 5.7
Thiobacilli [2]; day 30
  pH: 5.7
Thiobacilli [2]; day 40
  pH: 5.7
Thiobacilli [2]; day 90
  pH: 5.7
Thiobacilli [3]; System C1: colonized samples only dampened with rainwater, day 0
  pH values in the systems: 6.0
Thiobacilli [3]; System C1: colonized samples only dampened with rainwater, day 3
  pH values in the systems: 5.8
Thiobacilli [3]; System C1: colonized samples only dampened with rainwater, day 5
  pH values in the systems: 5.8
Thiobacilli [3]; System C1: colonized samples only dampened with rainwater, day 7
  pH values in the systems: 5.8
Thiobacilli [3]; System C1: colonized samples only dampened with rainwater, day 10
  pH values in the systems: 5.8
Thiobacilli [3]; System C1: colonized samples only dampened with rainwater, day 12
  pH values in the systems: 5.8
Thiobacilli [3]; System C1: colonized samples only dampened with rainwater, day 15
  pH values in the systems: 5.8
Thiobacilli [3]; System C1: colonized samples only dampened with rainwater, day 21
  pH values in the systems: 5.8
Thiobacilli [3]; System C1: colonized samples only dampened with rainwater, day 29
  pH values in the systems: 5.8
Thiobacilli [3]; System C1: colonized samples only dampened with rainwater, day 32
  pH values in the systems: 5.8
Thiobacilli [3]; System C1: colonized samples only dampened with rainwater, day 35
  pH values in the systems: 5.8
Thiobacilli [3]; System C1: colonized samples only dampened with rainwater, day 38
  pH values in the systems: 5.8
Thiobacilli [3]; System C1: colonized samples only dampened with rainwater, day 42
  pH values in the systems: 5.8
Thiobacilli [3]; System C1: colonized samples only dampened with rainwater, day 46
  pH values in the systems: 5.8
Thiobacilli [3]; System C1: colonized samples only dampened with rainwater, day 48
  pH values in the systems: 5.8
Thiobacilli [3]; System C: colonized samples immersed in rainwater, day 0
  pH values in the systems: 6.0
Thiobacilli [3]; System C: colonized samples immersed in rainwater, day 3
  pH values in the systems: 6.0
Thiobacilli [3]; System C: colonized samples immersed in rainwater, day 5
  pH values in the systems: 6.0
Thiobacilli [3]; System C: colonized samples immersed in rainwater, day 7
  pH values in the systems: 5.8
Thiobacilli [3]; System C: colonized samples immersed in rainwater, day 10
  pH values in the systems: 5.8
Thiobacilli [3]; System C: colonized samples immersed in rainwater, day 12
  pH values in the systems: 5.8
Thiobacilli [3]; System C: colonized samples immersed in rainwater, day 15
  pH values in the systems: 5.8
Thiobacilli [3]; System C: colonized samples immersed in rainwater, day 21
  pH values in the systems: 5.8
Thiobacilli [3]; System C: colonized samples immersed in rainwater, day 29
  pH values in the systems: 5.8
Thiobacilli [3]; System C: colonized samples immersed in rainwater, day 32
  pH values in the systems: 5.8
Thiobacilli [3]; System C: colonized samples immersed in rainwater, day 35
  pH values in the systems: 5.8
Thiobacilli [3]; System C: colonized samples immersed in rainwater, day 38
  pH values in the systems: 5.8
Thiobacilli [3]; System C: colonized samples immersed in rainwater, day 42
  pH values in the systems: 5.8
Thiobacilli [3]; System C: colonized samples immersed in rainwater, day 46
  pH values in the systems: 5.8
Thiobacilli [3]; System C: colonized samples immersed in rainwater, day 48
  pH values in the systems: 5.8
[4]; Rainwater + NaCl, day 0
  pH: 6.0
[4]; Rainwater + NaCl, day 2
  pH: 6.0
[4]; Rainwater + NaCl, day 4
  pH: 6.0
[4]; Rainwater + NaCl, day 7
  pH: 6.0
[4]; Rainwater + NaCl, day 9
  pH: 6.0
[4]; Rainwater + NaCl, day 11
  pH: 6.0
[4]; Rainwater + NaCl, day 14
  pH: 6.0
[4]; Rainwater + NaCl, day 21
  pH: 5.8
[4]; Rainwater + NaCl, day 23
  pH: 5.8
[4]; TM Medium + NaCl, day 0
  pH: 6.0
[4]; TM Medium + NaCl, day 2
  pH: 6.0
[4]; TM Medium + NaCl, day 4
  pH: 6.0
[4]; TM Medium + NaCl, day 7
  pH: 6.0
[4]; TM Medium + NaCl, day 9
  pH: 6.0
[4]; TM Medium + NaCl, day 11
  pH: 6.0
[4]; TM Medium + NaCl, day 14
  pH: 6.0
[4]; TM Medium + NaCl, day 21
  pH: 5.8
[4]; TM Medium + NaCl, day 23
  pH: 5.8
